The values below come from patent publication US6369101B1, “Therapeutic method to treat herpes virus infection” (Regents of the University of Minnesota, priority 1999, dated 2002).

In brackets after ≈: the same amount, converted by molar mass.

Data set [1] concerns Primary Rabbit Kidney cells. Kind of data set: Cytotoxic effect in primary rabbit kidney cells. It is filed as cell-based. The conditions noted are these: for CC50: Primary Rabbit Kidney cell line. As for the experimental part: (§1) Human laryngeal epithelial carcinoma cells (HEp-2, ATCC, Rockville, Md.) were used for testing of antiviral compounds by cytopathic effect (CPE) inhibition and plaque reduction assay. […] HEp-2, African green monkey kidney cells (Vero, ATCC), HFF and primary rabbit kidney cells were used to determine the cytotoxic effect of compounds of formula I. These cells were propagated in Dulbeco's modified Eagle's medium (DMEM) (Sigma, USA) supplemented with 10% inactivated fetal calf serum (FCS), 25 mM HEPES, 0.2% sodium bicarbonate and 1% penicillin/-streptomycin at 37° C. in the presence of 5% CO2.
(§2) HFF, Vero and HEp-2 cells were seeded in 24-well tissue culture plates at a concentration of […] in DMEM containing 10% FCS and incubated for 24 hours at 37° C. in the presence of 5% CO2. To the monolayer of these cells 0.5, 1.0, 1.5 and 2.0 ml of solution of antiviral compounds were added in the respective wells in duplicate and the cells were then incubated in a 5% CO2 incubator at 37° C. for 72 hours. The cells were observed daily for any change in morphology. […] At the end of this time, the media-drug solution was removed and the cells washed. One ml of 0.25% trypsin was added to each well and incubated until the cells start to come off of the plate. The cells-media mixture was then pipetted up and down several times to resuspend the cells and 0.2 ml of the cell suspension was added to 9.8 ml of trypan blue and cells were counted using hemocytometer. Each sample was counted three times with three replicate wells per sample.

The test system of the next data set is HSV-1 (strain F). Kind of data set: Plaque reduction assay, HSV-1 strain F in HEp-2 cells. It is filed as cell-based, herpes simplex virus type 1. As for the experimental part: (§3) HEp-2 cells were grown to monolayer in 24 well tissue culture plates in DMEM containing 10% fetal calf serum at 37° C. for 24-36 hours in the presence of 5% CO2. The monolayer of HEp-2 cells was infected with 0.1 ml of HSV- 1 (strain F) or HSV-2 (strain G) containing 100 pfu. The viruses were allowed to adsorb for 1 hour at 37° C. in the presence of 5% CO2. All wells containing virus infected cells except virus control were overlaid with 0.9 ml of DMEM and 1 ml of test compound. The virus control and cell control received DMEM only. All microtiter plates were incubated at 37° C. in the presence of 5% CO2 and observed twice daily for 72 hours for viral CPE. At the end of the experiment, plates were stained with 0.1% crystal violet and the results were quantified by counting plaque forming units.
Background: Plaques are areas of infected cells; plaque reduction assays count them against a control.

The next data set relates to HSV-1 strain E-377. Nature of the data set: CPE inhibition assay, HSV-1 E377 in human foreskin fibroblast cells. For Qualitative CPE at 2.0 ml dose HSV-1 E377: key: +++ = Complete cytopathic effect; ++ = Moderate cytopathic effect; + = Minimum cytopathic effect; − = No cytopathic effect. The format is cell-based, herpes simplex virus type 1. Conditions: for EC50 HSV-1 E377: CPE inhibition in HFF cells.
The test system of a further data set is HSV-2 strain G. Nature of the data set: CPE inhibition, HSV-2 strain G in HEp-2 cells. For Cytopathic Effect (CPE) Inhibition HSV-2 Strain G: key: +++ = Complete cytopathic effect; ++ = Moderate cytopathic effect; + = Minimum cytopathic effect; − = No cytopathic effect. It is filed as cell-based, herpes simplex virus type 2. The conditions noted are these: for Cytopathic Effect (CPE) Inhibition HSV-2 Strain G: conc. per compound (ng/ml). Background: Damage to the host cells serves as the signal in cytopathic effect assays.
The test system of another data set is Vero cells. Kind of data set: Cytotoxic effect in Vero cell line. The format is cell-based, African green monkey. Conditions: Vero cell line. The procedure:
as §1, §2

A further data set deals with HSV-1 (E377). Kind of data set: Cutaneous HSV-1 infection in rats, topical ointment. The format is in vivo, rat. The conditions noted are these: for effect on cutaneous HSV-1 infection (in words): topical ointment (2% betulin, 2% allobetulin, 5% Acyclovir) twice daily for 3 days from 18 hours after infection.
A further data set relates to HSV-2 (strain G). Nature of the data set: Plaque reduction assay, HSV-2 strain G in HEp-2 cells. The format is cell-based, herpes simplex virus type 2. The conditions noted are these: HSV-2 virus control 47. The procedure:
as §3

Setting [2] is: HFF cells, solution conc. per compound (ng/ml) (Acyclovir 250).
The mark [3] stands for this setting: conc. per compound (ng/ml) (Acyclovir 250).

In general, CC50 refers to the concentration giving 50% cytotoxicity.

Take `C=C(C)[C@@H]1CC[C@]2(CO)CC[C@]3(C)[C@H](CC[C@@H]4[C@@]5(C)CC[C@H](O)C(C)(C)[C@@H]5CC[C@]43C)[C@@H]12` [Betulin, lup-20(29)-ene-3β, 28-diol, reference compound]: the CC50 in data set [1] was above 0.25 µg/mL; with Vero cells it was 0.125 µg/mL (≈ 0.282 µM). In addition, the “cytotoxicity (in words)” value in data set [1] (primary rabbit kidney cells) is recorded as “No cytotoxicity”. Also, the “Plaque Reduction Assay Average pfu/10^5 Cells HSV-1 Strain F” value in the data set with HSV-1 (strain F) (conc. per compound as in column Conc. (ng/ml), HSV-1 virus control 5) is 0 pfu/10^5 Cells; in the data set on HSV-1 (strain F) (conc. per compound as in column Conc. (ng/ml), HSV-1 virus control 5, listed as betulin) it was “no plaque”. Moreover, in the data set on HSV-1 strain E-377, the “EC50 HSV-1 E377” value came out at 0.25 µg/mL (≈ 0.565 µM). Moreover, in the data set on HSV-1 strain E-377 (HFF cells, HSV-1 (E377)), the “anti HSV-1 activity (in words)” value was “significant anti-HSV-1 activity”. Moreover, the “Qualitative CPE at 2.0 ml dose HSV-1 E377” value with HSV-1 strain E-377 (setting [2]) is on record as “+++”. Further, in the data set with HSV-2 strain G, the “Cytopathic Effect (CPE) Inhibition HSV-2 Strain G” value was “+”. Also, the “anti HSV-2 activity (in words)” value in the data set on HSV-2 strain G (qualitative CPE inhibition assay) is on record as “significant anti HSV-2 activity”. Further, in the data set on HSV-1 (E377) (HSV-1, by the 4th to 8th days of infection, 2% ointment twice daily for 3 days), the “number of typical HSV lesions” value is “decreased rapidly”. Also, the “effect on cutaneous HSV-1 infection (in words)” value in the data set with HSV-1 (E377) is on record as “diminished the signs of the infectious process”. The “Plaque Reduction Assay Average pfu/10^5 Cells HSV-2 Strain G” value in the data set with HSV-2 (strain G) (setting [3]) turned out to be 16 pfu/10^5 Cells.

As to “acycloguanosine [Acyclovir, reference compound]”, the CC50 in data set [1] is above 0.25 µg/mL; with Vero cells it was 0.25 µg/mL. For the same compound, the “Plaque Reduction Assay Average pfu/10^5 Cells HSV-1 Strain F” value with HSV-1 (strain F) (Conc. 12500 ng/ml, HSV-1 virus control 5) is given as 0 pfu/10^5 Cells; in the data set on HSV-1 (strain F) (Conc. 12500 ng/ml, HSV-1 virus control 5, listed as Acyclovir®), “no plaque”. In addition, the “EC50 HSV-1 E377” value in the data set with HSV-1 strain E-377 came to 1.6 µg/mL. The “Qualitative CPE at 2.0 ml dose HSV-1 E377” value with HSV-1 strain E-377 (HFF cells, Conc. 12500 ng/ml) is given as “+”; in the data set on HSV-1 strain E-377 (setting [2]), “+++”. Further, the “Cytopathic Effect (CPE) Inhibition HSV-2 Strain G” value with HSV-2 strain G was “+++”. In addition, the “effect on cutaneous HSV-1 infection (in words)” value in the data set with HSV-1 (E377) was “same healing response”. Further, the “Plaque Reduction Assay Average pfu/10^5 Cells HSV-2 Strain G” value with HSV-2 (strain G) (Conc. 12500 ng/ml) was determined as 30 pfu/10^5 Cells; in the data set on HSV-2 (strain G) (setting [3]) it was 42 pfu/10^5 Cells.
